pIC50: −log10 of the molar value. Entries after “also recorded” stand apart in the source; their conditions may differ.
Columns and labels:
[1] = system: subcutaneously implanted human ovarian carcinoma, A2780; test: In vivo antitumor test, A2780
Protocol: Finally, pV(phen) was tested against subcutaneously implanted human ovarian carcinoma, A2780, in Experiment No. 54, using a treatment schedule of once daily for 9 days. Treatments (i.p.) were begun on day 10 post implant when the tumors were small but definite, e.g. […]

[2] = system: A2780/Tax22; test: In vitro cytotoxicity, XTT assay
Protocol: (§1) The vanadate compound pV(phen) was tested for in vitro cytotoxicity in a panel of human tumor cell lines. The cell lines used were a human colon carcinoma cell line, HCT116, and two drug-resistant sublines. The HCT116(VM46) subline was selected for resistance to VM-26 and expresses the multidrug resistant (MDR) phenotype including resistance to lipophilic anticancer drugs such as paclitaxel, VP-16, VM-26, doxorubicin, and vinblastine. This cell line overexpresses P-glycoprotein, a cell surface drug efflux pump, which limits accumulation of anticancer drugs such as the ones mentioned above. […] The compound pV(phen) was also evaluated in the ovarian carcinoma cell line A2780 and a paclitaxel resistant subline A2780-Tax22.
(§2) In the cytotoxicity assays, cells were plated and 24 hr later drugs were added and serially diluted. After 72 hr of continuous drug exposure, the tetrazolium dye XTT was added. A dehydrogenase enzyme in live cells reduces the XTT to a form that absorbs light at 450 nm which can be quantitated spectrophotometrically. The greater absorbance, the greater is the number of live cells. The results are expressed as a IC50 which is a drug concentration required to inhibit cell proliferation (i.e., absorbance at 450 nm) to 50% of that of untreated control cells.

[3] = system: HCT116(VP)35; test: In vitro cytotoxicity, XTT assay
Protocol: as §1, §2

[4] = system: HCT116(VM)46; test: In vitro cytotoxicity, XTT assay
Protocol: as §1, §2

[5] = system: CEM; test: Anti-phosphotyrosine immunoblot; format: cell-based, human; conditions: 16 hr
[6] = system: PHA-induced T cell blasts; test: Ca2+ signaling in PHA T cell blasts; format: cell-based, human
Protocol: Ca^2+ responses were measured using indo-1 (Molecular Probes, Eugene, Oreg.) and a model 50 HH/2150 flow cytometer (Ortho, Westwood, Mass.) as previously described (P. S. Rabinovitch et al., J. Immunol. 137:952-961 (1986)). The histograms were analyzed by programs (Cicero, Cytomation Inc., Ft. Collins, Colo.) that calculate the mean indo-1 violet/blue fluorescence ratio versus time. There are 100 data points on the X (time) axis for all flow cytometric data.
(§3) In the experiments shown in FIG. 25, human PHA-induced T cell blasts were treated overnight with the indicated concentrations of BMLOV. In Panel A, the baseline level of intracellular free Ca^2+ ([Ca^2+ ]i) was established for 1 min, and then the cells were treated with biotinylated anti-CD3 mAb (G19-4). After 5 min avidin was added (gap in the trace) to cross-link the antibody. In Panel B, assays were performed as in Panel A, but in the presence of 5 mM EGTA. […] In the experiments shown in FIG. 26, cells were treated 16 h with BMLOV and then stimulated with anti-CD3 mAb G19-4 for 5 min. Cells were then washed and resuspended in fresh media at equal concentrations of BMLOV at 37° C. Cells were then harvested and lysed at times following the initiation of CD3 stimulation as indicated. Antibody binding in immunoblots was detected by ECL.

[7] = target: T1, PP2A (Homo sapiens, UniProt P67775); test: Serine/threonine phosphatase PP2A inhibition; format: biochemical; conditions: vs CD45 and PTP1B
T1 construct: purchased Upstate Biotechnology, Lake Placid, N.Y
T1 sequence (P67775 whole entry): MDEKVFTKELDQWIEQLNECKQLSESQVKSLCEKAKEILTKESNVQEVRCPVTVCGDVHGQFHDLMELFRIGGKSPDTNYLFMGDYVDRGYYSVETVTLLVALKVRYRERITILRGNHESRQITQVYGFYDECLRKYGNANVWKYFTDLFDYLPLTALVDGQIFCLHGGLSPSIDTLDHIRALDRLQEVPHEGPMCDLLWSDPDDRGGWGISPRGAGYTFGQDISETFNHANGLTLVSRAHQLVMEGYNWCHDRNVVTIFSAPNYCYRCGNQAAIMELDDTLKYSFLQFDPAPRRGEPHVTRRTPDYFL

[8] = system: Jurkat T cells; test: TUNEL analysis of fragmented DNA by flow cytometry; format: cell-based, human; conditions: 25 or 50 μM BMLOV, 48 h
Protocol: (§4) TUNEL (TdT-mediated dUTP-biotin nick end labeling) staining for the in situ detection of fragmented DNA was as previously described (Y. Gavrieli et al., J. Cell Biol. 119:493-501 (1992)) with modification to permit detection by flow cytometry. Cells (2×106) were washed with PBS and resuspended in 4% formaldehyde in PBS at 4° C. for 4 h for fixation. Cells were rinsed in PBS and permeabilized by resuspension in 70% ethanol in PBS for 1 h at 4° C. Cells were rinsed with PBS, rinsed with TdT buffer (30 mM Tris-HCl, pH 7.2, 140 mM cacodylate, 1 mM cobalt chloride) and resuspended in 150 μl TdT buffer. Biotin-dUTP (SIGMA, St. Louis, Mo.) was added to 15 μM and terminal deoxynucleotidyl transferase (TdT, Boehringer Mannheim) was added to 0.6 U/μl. DNA synthesis was for 1 h at 37° C. and was stopped by the addition of 1 ml cold PBS. Cells were rinsed twice with PBS and resuspended in 500 μl of PBS containing 5 μg of fluorescein-avidin at 4° C. for 16 h. Cells were washed twice in PBS and resuspended in 400 μl of PBS for flow cytometry. Cells were analyzed using a Becton-Dickinson FACScan flow cytometer and LYSIS analysis software.
(§5) The extent of DNA fragmentation and the cell type selective activity was quantitated by TUNEL analysis (Y. Gavrieli et al., (1992), supra); FIG. 28). […]

[9] = system: Ramos B cells; test: TUNEL analysis of fragmented DNA by flow cytometry; format: cell-based, human; conditions: 25 or 50 μM BMLOV, 48 h
Protocol: as §4, §5

[10] = system: normal peripheral B cells; conditions: human, 120 h, 25 µM
Protocol: Cell death was measured by staining cells with propidium iodine followed by flow cytometry (EPICS C, Coulter) as previously described (N. K. Damle et al. (1993), supra; Y. Liu & C. A. J. Janeway, "Interferon Gamma Plays a Critical Role in Induced Cell Death of Effector T Cells: A Possible Third Mechanism of Self-Tolerance," J. Exp. Med. 172:1735-1739 (1990)). Flow cytometric data on forward scatter and red fluorescence arising from propidium iodine binding to cellular DNA was collected for 5,000 cells and analyzed by the Quadstat Program (N. K. Damle, (1993), supra). The membranes of dead cells are permeable to propidium iodine (Y. Liu & C. A. Janeway, (1990), supra), but cells undergoing the process of apoptosis can shrink in size while temporarily maintaining plasma membrane integrity (J. J. Cohen et al., "Apoptosis and Programmed Cell Death and Immunity," Annu. Rev. Immunol. 10:267-293 (1992)). […] Only cells displaying normal size and resistance to staining by propidium iodide are considered viable cells and are found in the lower left quadrant (M. K. Damle et al. (1993), supra). The percentage of cells in each quadrant was calculated by the Quadstat program. […]
To provide a final measure of cell death, propidium iodide staining of cells was used. […] Viability was measured by staining with propidium iodide followed by flow cytometric analysis as described above. […]

[11] = system: ZAP-70; test: ZAP-70 tyrosine phosphorylation in T cells; format: cell-based; conditions: 16 h BMLOV, anti-CD3 stimulation
Protocol: as §3

[12] = Expt. 54, OD 12 mg/kg/inj, qdx9;10, ip

| Compound | LCK (log cell kill) [1, 12] | T-C (delay in primary tumor growth) [1, 12] [days] | MTD ([1]; once daily for 9 days, i.p., cumulative dose of 45 mg/kg) [mg/kg per injection] | pIC50 ([2]; a2780/tax22 cells, 72 h) | fold resistance relative to parental cell line ([2]; vs A2780, 4320 min) [fold] | pIC50 ([3]; hct116(vp35) cells, 72 h) | fold resistance relative to parental cell line ([3]; vs HCT116, 4320 min) [fold] | pIC50 ([4]; hct116(vm46) cells, 72 h) | fold resistance relative to parental cell line ([4]; vs HCT116, 4320 min) [fold] | induction of tyrosine phosphorylation [5] | Ca2+ signals from crosslinking CD3 alone or with CD2 and CD4 ([6]; 25-50 μM BMLOV) | basal calcium levels ([6]; 50 to 100 μM BMLOV, fifteen hours) | effect on CD28 Ca2+ signals ([6]; PHA T cell blasts) | Ca2+ signaling in T cells ([6]; anti-CD3 cross-linking, BMLOV overnight (25 μM elsewhere in the source)) | concentration for similar inhibition relative to phosphotyrosine phosphatases [7] | DNA fragmentation by TUNEL [8] | DNA fragmentation by TUNEL [9] | viable cells [10] [%] | tyrosine phosphorylation of ZAP-70 or the associated zeta chain [11] |
| --- | --- | --- | --- | --- | --- | --- | --- | --- | --- | --- | --- | --- | --- | --- | --- | --- | --- | --- | --- |
| [Na+].[O]=[V-]12([O][O]1)[O][O]2.c1cnc2c(c1)ccc1cccnc12 [pV(phen), sodium (1,10-phenanthroline) oxodiperoxovanadium (V)] | 0.4 | 4.0 | 5 | 5.12 | 0.9 | 5.14 | 0.9 | 5.70 | 0.2 | – | – | – | – | – | – | – | – | – | – |
| Cc1occc(=O)c1[O-].Cc1occc(=O)c1[O-].[O]=[V+2] [BMLOV, Bis(maltolato)oxovanadium (IV)] | – | – | – | – | – | – | – | – | – | only low levels of tyrosine phosphorylation | prolong Ca^2+ signals | markedly enhance basal calcium levels | marked inhibition | detectably stimulated Ca^2+ signaling; also recorded: increased and prolonged | over 100 fold | little labeling was observed | extensively induced in a dose dependent manner | 27 | little effect was observed |

Reference: patent US5877210A, “Phosphotyrosine phosphatase inhibitors or phosphotyrosine kinase activators for controlling cellular proliferation” (priority 1995, dated 1999)
